# Measured values taken from patent US11530244B2, “Cyclic polypeptides for PCSK9 inhibition” (priority 2018, dated 2022).
# Starred links: 1 amine or outer side, 2 acyl side, 3 side chain; linkers in the order of their positions; H or OH if unused. Positions of bridges follow the written chain, without caps; N, C: chain ends. Non-standard residues stand in square brackets, D forms with d. Residues, ends and D or L forms follow the SMILES beside them. Phe(3-CH2NH2) = O=C([C@H](Cc1cccc(CN[*:3])c1)N[*:1])[*:2]; Trp(5-F) = N[C@@H](Cc1c[nH]c2ccc(F)cc12)C(=O)O; dTrp(5-F) = N[C@H](Cc1c[nH]c2ccc(F)cc12)C(=O)O; Trp(7-aza) = N[C@@H](Cc1c[nH]c2ncccc12)C(=O)O; Phe(4-CH2NH2) = NCc1ccc(C[C@H](N)C(=O)O)cc1; Asp(3,3-Me2) = CC(C)(C(=O)O)[C@H](N)C(=O)O; X9 = CS[C@H]1C[C@@H](C(=O)[*:2])N([*:1])C1; X17 = O=C(CCSCc1ccc(CSCCN[*:1])cc1)[*:2]; Pro(4S-NH2) = N[C@@H]1CN[C@H](C(=O)O)C1; X4 = O=C(CCSCc1cccc(CSCCN[*:1])c1)[*:2]; X27 = O=C([C@@H](N[*:1])C1(O)CC1)[*:2]; TBMB = c1c(C[*:1])cc(C[*:3])cc1C[*:2]; dGly(cPent) = N[C@@H](C(=O)O)C1CCCC1; mXylylene = c1cc(C[*:1])cc(C[*:2])c1; d(aThr) = C[C@@H](O)[C@@H](N)C(=O)O; Adipoyl = O=C(CCCCC(=O)[*:2])[*:1]; X22 = Oc1cc(C[*:1])cc(C[*:2])c1; Aad = N[C@@H](CCCC(=O)O)C(=O)O; d(αMeP) = C[C@]1(C(=O)O)CCCN1; Tle = CC(C)(C)[C@H](N)C(=O)O; αMeP = C[C@@]1(C(=O)O)CCCN1; dDab = NCC[C@@H](N)C(=O)O; Orn = NCCC[C@H](N)C(=O)O; dDap = NC[C@@H](N)C(=O)O; X2 = O=C(C[*:2])[*:1]; Mpa = O=C(O)CCS
# Tests used:
# [1] = target: human PCSK9 / human LDLR EGFa domain interaction (Homo sapiens (Human), UniProt Q8NBP7); experiment: TR-FRET assay of inhibition of the PCSK9-LDLR protein-protein interaction; type: binding; details: TR-FRET, 20 nM human PCSK9, 20 nM human LDLR EGFa domain, 2 hours room temperature; read-out: IC50
# Outline: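 20 nM biotin-avitag PCSK9 + 20 nM His-LDLR EGFa; 5 nM Ulight-SA / 5 nM Eu-anti-His; 2 h RT; HEPES 50 mM, NaCl 150 mM, CaCl2 5 mM, 0.01% BSA, 0.01% P20. Half-maximal inhibition, 4-parameter fit.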
# PCSK9 = PCSK9 (Homo sapiens (Human), UniProt Q8NBP7); experiment: PCSK9 Alexa FRET Standard assay (displacement of AlexaFluor647 tagged cyclic peptide Reagent A); type: binding; details: PCSK9 Alexa FRET Standard assay, 0.5 nM PCSK9, 20 nM AF cyclic peptide Reagent A; read-out: IC50
# Outline: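 TR-FRET displacement: 0.5 nM biotinylated PCSK9 with 1.25 nM Strep-Eu and 20 nM AlexaFluor-tagged cyclic peptide (final) in 50 mM HEPES pH 7.4, 0.15 M NaCl, 5 mM CaCl2, 0.01% BSA, 0.01% P20, ≥2 h at room temperature. IC50 from sigmoidal fit, converted to Ki via peptide KD; falling Eu counts flagged false positives.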
# human PCSK9 / human LDLR EGFa domain interaction, sequence (Q8NBP7 153-692): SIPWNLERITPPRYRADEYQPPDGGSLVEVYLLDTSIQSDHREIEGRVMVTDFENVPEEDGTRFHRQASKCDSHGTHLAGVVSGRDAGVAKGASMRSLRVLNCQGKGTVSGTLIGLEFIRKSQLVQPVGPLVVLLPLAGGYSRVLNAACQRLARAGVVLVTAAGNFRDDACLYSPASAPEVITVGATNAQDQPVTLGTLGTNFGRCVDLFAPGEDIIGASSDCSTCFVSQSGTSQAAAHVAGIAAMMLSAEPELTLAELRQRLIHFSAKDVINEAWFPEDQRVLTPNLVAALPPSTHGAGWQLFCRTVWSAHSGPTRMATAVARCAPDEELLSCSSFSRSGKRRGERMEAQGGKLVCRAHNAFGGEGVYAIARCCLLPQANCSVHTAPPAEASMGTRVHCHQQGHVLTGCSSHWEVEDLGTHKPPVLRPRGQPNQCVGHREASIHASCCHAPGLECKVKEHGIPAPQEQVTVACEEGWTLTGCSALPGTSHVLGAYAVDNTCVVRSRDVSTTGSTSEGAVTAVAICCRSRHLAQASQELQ
# human PCSK9 / human LDLR EGFa domain interaction, sequence (Q8NBP7 31-152 partner): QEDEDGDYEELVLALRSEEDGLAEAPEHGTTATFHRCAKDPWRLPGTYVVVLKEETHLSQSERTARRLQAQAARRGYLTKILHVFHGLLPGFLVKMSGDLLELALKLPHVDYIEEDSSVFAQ
# PCSK9, sequence (Q8NBP7 153-692): as the sequence (Q8NBP7 153-692) above
Structure (SMILES),IC50 [1] [nM],IC50 (PCSK9) [nM]
CC(=O)N[C@H]1CCCc2cn(nn2)CCC[C@@H](C(N)=O)NC(=O)[C@]2(C)CCCN2C(=O)[C@H](Cc2ccc(O)cc2)NC(=O)[C@H](Cc2cnc[nH]2)NC(=O)[C@H](CC(=O)O)NC(=O)[C@H](Cc2c[nH]c3ccc(F)cc23)NC(=O)[C@H](Cc2c[nH]c3ccc(F)cc23)NC(=O)CNC(=O)[C@H](C)NC1=O [Compound 342],1000 to 12100,1000 to 12100
COc1ccc(C[C@@H]2NC(=O)[C@H](Cc3c[nH]cn3)NC(=O)[C@H](CC(=O)O)NC(=O)[C@H](Cc3c[nH]c4ccc(F)cc34)NC(=O)[C@H](Cc3c[nH]c4ccc(F)cc34)NC(=O)[C@@H](C3CCCC3)NC(=O)[C@H](CCCCN)NC(=O)CCSCc3cccc(c3)CSCCNC(=O)[C@]3(C)CCCN3C2=O)cc1 [Compound 344] (cyclo(DHY(Me)[αMeP][X4]K[dGly(cPent)][Trp(5-F)][Trp(5-F)])),21000 to 50000,21000 to 50000
COc1ccc(C[C@@H]2NC(=O)[C@H](CCCC(=O)O)NC(=O)[C@@H]3C[C@H](N)CN3C(=O)[C@H](Cc3c[nH]c4ccc(F)cc34)NC(=O)[C@H](Cc3c[nH]c4ccc(F)cc34)NC(=O)[C@@H](C)NC(=O)[C@H](C)NC(=O)CCSCc3ccc(cc3)CSCCNC(=O)[C@]3(C)CCCN3C2=O)cc1 [Compound 345] (cyclo(A[dA][Trp(5-F)][Trp(5-F)][Pro(4S-NH2)][Aad]Y(Me)[αMeP][X17])),21000 to 50000,21000 to 50000
COc1ccc(C[C@@H]2NC(=O)[C@@H]([C@@H](C)O)NC(=O)[C@H](CCCC(=O)O)NC(=O)[C@H](Cc3c[nH]c4ccc(F)cc34)NC(=O)[C@H](Cc3cccc(CN)c3)NC(=O)[C@@H](C)NC(=O)[C@H](C)NC(=O)CCSCc3cccc(c3)CSCCNC(=O)[C@]3(C)CCCN3C2=O)cc1 [Compound 346] (cyclo(A[dA][Phe(3-CH2NH2)][Trp(5-F)][Aad][d(aThr)]Y(Me)[αMeP][X4])),0.1 to 100,1000 to 12100
COc1ccc(C[C@@H]2NC(=O)[C@H](Cc3cnc[nH]3)NC(=O)[C@H](CC(=O)O)NC(=O)[C@H](Cc3c[nH]c4ccc(F)cc34)NC(=O)[C@H](Cc3c[nH]c4ccc(F)cc34)NC(=O)[C@@H](C)NC(=O)[C@H](CCCCN)NC(=O)[C@@H](NC(C)=O)CCCc3cn(nn3)-c3ccc(cc3)C[C@@H](C(N)=O)NC(=O)[C@]3(C)CCCN3C2=O)cc1 [Compound 353],21000 to 50000,21000 to 50000
C[C@@]12CCCN1C(=O)[C@H](Cc1ccc(O)cc1)NC(=O)[C@H](Cc1cnc[nH]1)NC(=O)[C@H](CC(=O)O)NC(=O)[C@H](Cc1c[nH]c3ccc(F)cc13)NC(=O)[C@H](Cc1c[nH]c3ccc(F)cc13)NC(=O)CNC(=O)[C@@H](CN)NC(=O)CCSCc1cccc(c1)CSC[C@@H](C(N)=O)NC2=O [Compound 354] ([Mpa][dDap]G[Trp(5-F)][Trp(5-F)]DHY[αMeP]C-NH2; linker 1-10 via mXylylene),21000 to 50000,21000 to 50000
C[C@@]12CCCN1C(=O)[C@H](Cc1ccc(O)cc1)NC(=O)[C@H](Cc1cnc[nH]1)NC(=O)[C@H](CC(=O)O)NC(=O)[C@H](Cc1c[nH]c3ccc(F)cc13)NC(=O)[C@H](Cc1c[nH]c3ccc(F)cc13)NC(=O)CNC(=O)[C@@H](CCN)NC(=O)CCSCc1cccc(c1)CSC[C@@H](C(N)=O)NC2=O [Compound 355] ([Mpa][dDab]G[Trp(5-F)][Trp(5-F)]DHY[αMeP]C-NH2; linker 1-10 via mXylylene),100 to 1000,100 to 1000
Cc1cc2cc(c1)CSC[C@@H](C(N)=O)NC(=O)[C@]1(C)CCCN1C(=O)[C@H](Cc1ccc(O)cc1)NC(=O)[C@H](Cc1c[nH]cn1)NC(=O)[C@H](CC(=O)O)NC(=O)[C@H](Cc1c[nH]c3ccc(F)cc13)NC(=O)[C@H](Cc1c[nH]c3ccc(F)cc13)NC(=O)CNC(=O)[C@H](CCCCN)NC(=O)CCSC2 [Compound 357] ([Mpa]KG[Trp(5-F)][Trp(5-F)]DHY[αMeP]C-NH2; linker 1-10 via TBMB),1000 to 12100,1000 to 12100
C[C@@]12CCCN1C(=O)[C@H](Cc1ccc(O)cc1)NC(=O)[C@H](Cc1c[nH]cn1)NC(=O)[C@H](CC(=O)O)NC(=O)[C@H](Cc1c[nH]c3ccc(F)cc13)NC(=O)[C@H](Cc1c[nH]c3ccc(F)cc13)NC(=O)CNC(=O)[C@H](CCCCN)NC(=O)CCSCc1cc(O)cc(c1)CSC[C@@H](C(N)=O)NC2=O [Compound 359] ([Mpa]KG[Trp(5-F)][Trp(5-F)]DHY[αMeP]C-NH2; linker 1-10 via X22),0.1 to 100,100 to 1000
C[C@@]12CCCN1C(=O)[C@H](Cc1c[nH]c3ncccc13)NC(=O)[C@H](Cc1cnc[nH]1)NC(=O)[C@H](CC(=O)O)NC(=O)[C@H](Cc1c[nH]c3ccc(F)cc13)NC(=O)[C@H](Cc1c[nH]c3ccc(F)cc13)NC(=O)CNC(=O)[C@H](CCCCN)NC(=O)CCSCc1cccc(c1)CSC[C@@H](C(N)=O)NC2=O [Compound 360] ([Mpa]KG[Trp(5-F)][Trp(5-F)]DH[Trp(7-aza)][αMeP]C-NH2; linker 1-10 via mXylylene),0.1 to 100,100 to 1000
"C[C@H]1NC(=O)[C@H](CCCCN)NC(=O)CCSCc2cccc(c2)CSC[C@@H](C(N)=O)NC(=O)[C@]2(C)CCCN2C(=O)[C@H](Cc2ccc(O)cc2)NC(=O)[C@H](Cc2cnc[nH]2)NC(=O)[C@H](C(C)(C)C(=O)O)NC(=O)[C@H](Cc2c[nH]c3ccc(F)cc23)NC(=O)[C@H](Cc2c[nH]c3ccc(F)cc23)NC1=O [Compound 361] ([Mpa]K[dA][Trp(5-F)][Trp(5-F)][Asp(3,3-Me2)]HY[αMeP]C-NH2; linker 1-10 via mXylylene)",0.1 to 100,100 to 1000
COc1ccc(C[C@H]2NC(=O)[C@@H](Cc3c[nH]cn3)NC(=O)[C@@H](CC(=O)O)NC(=O)[C@@H](Cc3c[nH]c4ccc(F)cc34)NC(=O)[C@@H](Cc3c[nH]c4ccc(F)cc34)NC(=O)[C@H](C(C)(C)C)NC(=O)[C@@H](CCCCN)NC(=O)CCSCc3cccc(c3)CSCCNC(=O)[C@@]3(C)CCCN3C2=O)cc1 [Compound 362] (cyclo([Tle][dTrp(5-F)][dTrp(5-F)][dD][dH][dY](Me)[d(αMeP)][X4][dK])),0.1 to 100,0.11 to 100
CS[C@H]1C[C@H]2C(=O)N[C@H](C(N)=O)CSCc3cccc(c3)CSCCC(=O)N[C@@H](CCCCN)C(=O)NCC(=O)N[C@@H](Cc3c[nH]c4ccc(F)cc34)C(=O)N[C@@H](Cc3c[nH]c4ccc(F)cc34)C(=O)N[C@@H](CC(=O)O)C(=O)N[C@@H](Cc3cnc[nH]3)C(=O)N[C@@H](Cc3ccc(O)cc3)C(=O)N2C1 [Compound 363] ([Mpa]KG[Trp(5-F)][Trp(5-F)]DHY[X9]C-NH2; linker 1-10 via mXylylene),0.1 to 100,100 to 1000
CC(=O)N[C@H]1CCCNC(=O)COc2ccc(cc2)C[C@@H](C(N)=O)NC(=O)[C@]2(C)CCCN2C(=O)[C@H](Cc2ccc(O)cc2)NC(=O)[C@H](Cc2cnc[nH]2)NC(=O)[C@H](CC(=O)O)NC(=O)[C@H](Cc2c[nH]c3ccc(F)cc23)NC(=O)[C@H](Cc2c[nH]c3ccc(F)cc23)NC(=O)CNC(=O)[C@H](C)NC1=O [Compound 364] (Ac-[Orn]AG[Trp(5-F)][Trp(5-F)]DHY[αMeP]Y-NH2; linker 1-10 via X2),100 to 1000,100 to 1000
COc1ccc(C[C@@H]2NC(=O)[C@H](Cc3cnc[nH]3)NC(=O)[C@H](CC(=O)O)NC(=O)[C@H](Cc3c[nH]c4cc(F)ccc34)NC(=O)[C@H](Cc3c[nH]c4ccc(F)cc34)NC(=O)[C@@H](C)NC(=O)[C@H](CCCCN)NC(=O)CCCc3cn(nn3)-c3ccc(cc3)C[C@@H](C(N)=O)NC(=O)[C@]3(C)CCCN3C2=O)cc1 [Compound 369],0.1 to 100,100 to 1000
C[C@@H]1NC(=O)CCCCC(=O)NCc2ccc(cc2)C[C@@H](C(N)=O)NC(=O)[C@]2(C)CCCN2C(=O)[C@H](Cc2ccc(O)cc2)NC(=O)[C@H](Cc2cnc[nH]2)NC(=O)[C@H](CC(=O)O)NC(=O)[C@H](Cc2c[nH]c3ccc(F)cc23)NC(=O)[C@H](Cc2c[nH]c3ccc(F)cc23)NC(=O)CNC1=O [Compound 370] (AG[Trp(5-F)][Trp(5-F)]DHY[αMeP][Phe(4-CH2NH2)]-NH2; linker N-9 via Adipoyl),0.1 to 100,100 to 1000
COc1ccc(C[C@@H]2NC(=O)[C@H](Cc3cnc[nH]3)NC(=O)[C@H](CC(=O)O)NC(=O)[C@H](Cc3c[nH]c4ccc(F)cc34)NC(=O)[C@H](Cc3c[nH]c4ccc(F)cc34)NC(=O)[C@@H](C)NC(=O)[C@H](CCCCN)NC(=O)[C@@H](NC(C)=O)CCc3cn(nn3)-c3ccc(cc3)C[C@@H](C(N)=O)NC(=O)[C@]3(C)CCCN3C2=O)cc1 [Compound 371],0.1 to 100,0.11 to 100
C[C@@]12CCCN1C(=O)[C@H](Cc1ccc(O)cc1)NC(=O)[C@H](Cc1cnc[nH]1)NC(=O)[C@H](CC(=O)O)NC(=O)[C@H](Cc1c[nH]c3ccc(F)cc13)NC(=O)[C@H](Cc1c[nH]c3ccc(F)cc13)NC(=O)CNC(=O)[C@H](C1(O)CC1)NC(=O)CCSCc1cccc(c1)CSC[C@@H](C(N)=O)NC2=O [Compound 372] ([Mpa][X27]G[Trp(5-F)][Trp(5-F)]DHY[αMeP]C-NH2; linker 1-10 via mXylylene),100 to 1000,100 to 1000
